Assay results: ChEMBL document CHEMBL1909046, “DrugMatrix in vitro pharmacology data”

How the values were obtained:
Cytochrome P450 2A6 = molecular target: T1, Cytochrome P450 2A6 (Homo sapiens, UniProt P11509); settings: bti-tn-5b1-4; also: in other assays of this panel Not Active means under 50% inhibition at 10 µM
T1 sequence (P11509 whole entry): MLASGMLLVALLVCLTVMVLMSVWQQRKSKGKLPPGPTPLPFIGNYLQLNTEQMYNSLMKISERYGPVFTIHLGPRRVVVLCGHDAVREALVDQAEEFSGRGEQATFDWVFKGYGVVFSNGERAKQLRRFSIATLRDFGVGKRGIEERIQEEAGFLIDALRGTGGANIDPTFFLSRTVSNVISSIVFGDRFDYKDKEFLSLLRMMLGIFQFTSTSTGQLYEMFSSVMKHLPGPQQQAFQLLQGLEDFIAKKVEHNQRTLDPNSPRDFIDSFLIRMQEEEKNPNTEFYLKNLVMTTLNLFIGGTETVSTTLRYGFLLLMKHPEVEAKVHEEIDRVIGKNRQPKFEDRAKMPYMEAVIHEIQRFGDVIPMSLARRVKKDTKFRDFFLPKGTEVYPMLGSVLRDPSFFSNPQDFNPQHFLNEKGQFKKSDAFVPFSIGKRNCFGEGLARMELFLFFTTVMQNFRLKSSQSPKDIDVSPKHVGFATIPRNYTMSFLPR

[1] = molecular target: T2, Alpha-1D adrenergic receptor (Homo sapiens, UniProt P25100); format: cell membranes, HEK293, Membrane; settings: for Ki: read-out: Ki; as to all read-outs here: in other assays of this panel Not Active means under 50% inhibition at 10 µM
T2 sequence (P25100 whole entry): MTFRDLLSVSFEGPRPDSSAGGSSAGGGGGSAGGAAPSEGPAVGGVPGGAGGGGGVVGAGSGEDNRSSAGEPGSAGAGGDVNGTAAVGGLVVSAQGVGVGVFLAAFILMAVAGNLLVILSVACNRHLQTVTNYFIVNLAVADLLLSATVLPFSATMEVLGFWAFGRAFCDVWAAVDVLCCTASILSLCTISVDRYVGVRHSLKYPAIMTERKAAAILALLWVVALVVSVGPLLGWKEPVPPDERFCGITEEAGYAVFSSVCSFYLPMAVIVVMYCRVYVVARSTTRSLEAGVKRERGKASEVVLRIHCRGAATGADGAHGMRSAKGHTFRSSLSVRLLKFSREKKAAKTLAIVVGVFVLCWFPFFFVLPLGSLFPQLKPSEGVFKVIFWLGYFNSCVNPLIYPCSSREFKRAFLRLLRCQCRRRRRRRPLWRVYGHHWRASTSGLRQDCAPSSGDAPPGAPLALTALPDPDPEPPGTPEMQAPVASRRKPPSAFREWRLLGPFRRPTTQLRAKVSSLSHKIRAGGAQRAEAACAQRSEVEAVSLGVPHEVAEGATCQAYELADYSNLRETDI

D(4) dopamine receptor = molecular target: T3, D(4) dopamine receptor (Homo sapiens, UniProt P21917); assay: DRUGMATRIX: Dopamine D4.2 radioligand binding (ligand: [3H] Spiperone); format: cell membranes, CHO-K1, Membrane; settings: Not Active = under 50% inhibition at 10 µM; for Ki: read-out: Ki
T3 sequence (P21917 whole entry): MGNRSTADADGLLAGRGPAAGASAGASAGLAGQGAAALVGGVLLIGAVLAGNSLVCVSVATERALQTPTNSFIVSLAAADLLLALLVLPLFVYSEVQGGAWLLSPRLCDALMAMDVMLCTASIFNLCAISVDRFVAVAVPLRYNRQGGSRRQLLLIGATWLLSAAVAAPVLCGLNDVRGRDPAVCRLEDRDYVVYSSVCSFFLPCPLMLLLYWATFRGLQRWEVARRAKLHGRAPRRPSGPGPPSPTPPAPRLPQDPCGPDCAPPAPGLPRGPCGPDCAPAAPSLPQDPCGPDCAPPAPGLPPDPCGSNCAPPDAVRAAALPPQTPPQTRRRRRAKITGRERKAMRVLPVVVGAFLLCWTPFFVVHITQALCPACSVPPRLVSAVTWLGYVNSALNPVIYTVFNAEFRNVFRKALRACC

B2 bradykinin receptor = molecular target: T4, B2 bradykinin receptor (Homo sapiens, UniProt P30411); format: cell membranes, Membrane; settings: chem-1; also: in other assays of this panel Not Active means under 50% inhibition at 10 µM
T4 sequence (P30411 whole entry): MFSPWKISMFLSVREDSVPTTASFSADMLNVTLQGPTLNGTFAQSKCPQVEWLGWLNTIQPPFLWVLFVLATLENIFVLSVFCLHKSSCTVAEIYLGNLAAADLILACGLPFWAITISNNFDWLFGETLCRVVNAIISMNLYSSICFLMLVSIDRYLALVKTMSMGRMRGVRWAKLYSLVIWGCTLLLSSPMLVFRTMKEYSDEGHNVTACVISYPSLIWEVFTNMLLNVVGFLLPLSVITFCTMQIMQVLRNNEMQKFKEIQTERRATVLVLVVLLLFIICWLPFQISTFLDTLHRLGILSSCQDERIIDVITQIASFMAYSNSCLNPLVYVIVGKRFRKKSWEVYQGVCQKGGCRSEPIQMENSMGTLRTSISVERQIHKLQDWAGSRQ

[2] = molecular target: T5, Type-2 angiotensin II receptor (Homo sapiens, UniProt P50052); format: cell-based; settings: cho-k1; also: in other assays of this panel Not Active means under 50% inhibition at 10 µM
T5 sequence (P50052 whole entry): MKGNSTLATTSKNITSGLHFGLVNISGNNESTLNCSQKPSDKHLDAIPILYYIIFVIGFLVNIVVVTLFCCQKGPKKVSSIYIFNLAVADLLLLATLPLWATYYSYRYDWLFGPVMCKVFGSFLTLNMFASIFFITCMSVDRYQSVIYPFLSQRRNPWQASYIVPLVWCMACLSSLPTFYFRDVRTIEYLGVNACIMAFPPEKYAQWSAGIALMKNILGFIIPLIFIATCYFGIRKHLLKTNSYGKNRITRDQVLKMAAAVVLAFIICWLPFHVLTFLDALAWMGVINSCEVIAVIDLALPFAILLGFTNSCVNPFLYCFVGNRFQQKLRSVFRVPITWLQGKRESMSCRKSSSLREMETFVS

Glycine receptor = Glycine receptor (Rattus norvegicus, UniProt P22771+P24524+P07727+P20781); format: cell membranes, Wistar, Spinal cord, Membrane; also: in other assays of this panel Not Active means under 50% inhibition at 10 µM
[3] = DRUGMATRIX: Sodium/nucleoside co-transporter radioligand binding (ligand: nitrobenzylthioinosine); format: cell membranes, Cavia porcellus, Dunkin-Hartley, Cerebral cortex, Membrane; settings: Not Active = under 50% inhibition at 10 µM
[4] = molecular target: Sigma non-opioid intracellular receptor 1 (Homo sapiens, UniProt Q99720); assay: DRUGMATRIX: Sigma1 radioligand binding (ligand: [3H] Haloperidol); format: cell membranes, Jurkat, Membrane; settings: Not Active = under 50% inhibition at 10 µM; for Ki: read-out: Ki
Sequence of Sigma non-opioid intracellular receptor 1 (Q99720 whole entry): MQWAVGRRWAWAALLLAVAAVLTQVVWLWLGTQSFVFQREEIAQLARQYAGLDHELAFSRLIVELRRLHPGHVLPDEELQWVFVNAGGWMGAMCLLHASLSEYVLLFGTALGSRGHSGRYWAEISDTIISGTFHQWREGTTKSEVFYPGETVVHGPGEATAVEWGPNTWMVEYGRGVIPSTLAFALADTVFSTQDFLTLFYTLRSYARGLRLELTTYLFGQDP

[5] = DRUGMATRIX: GABAA, Flunitrazepam, Central radioligand binding (ligand: [3H] Flunitrazepam); format: cell membranes, Rattus norvegicus, Wistar, Brain, Membrane; settings: Not Active = under 50% inhibition at 10 µM

Structure (SMILES) | IC50 (Cytochrome P450 2A6) | Ki (Cytochrome P450 2A6) | IC50 ([1]; hek293) | IC50 (D(4) dopamine receptor; cho-k1) | IC50 (B2 bradykinin receptor) | IC50 [2] | IC50 (Glycine receptor) | IC50 [3] | Ki [3] | IC50 ([4]; jurkat) | IC50 [5] | Ki [5] | IC50 ([1]; read-out: IC50) [µM] | Ki [1] [µM] | IC50 ([4]; read-out: IC50) [µM] | Ki [4] [µM] | IC50 (D(4) dopamine receptor; read-out: IC50) [µM] | Ki (D(4) dopamine receptor) [µM] | IC50 ([3]; read-out: IC50) [µM] | Ki ([3]; read-out: Ki) [µM]
CC(C)(C)NC(=O)[C@@H]1CN(Cc2cccnc2)CCN1C[C@@H](O)C[C@@H](Cc1ccccc1)C(=O)N[C@H]1c2ccccc2C[C@H]1O.O | Not Active | Not Active | Not Active | Not Active | Not Active | Not Active | Not Active | Not Active | Not Active | Not Active | Not Active | Not Active |  |  |  |  |  |  |  | 
COc1ccc(CCN2CCC(Nc3nc4ccccc4n3Cc3ccc(F)cc3)CC2)cc1 [ASTEMIZOLE] | Not Active | Not Active |  |  | Not Active | Not Active | Not Active |  |  |  |  |  | 0.769 | 0.378 |  |  |  |  |  | 
CN(C)CCCN1c2ccccc2CCc2ccc(Cl)cc21 [CLOMIPRAMINE] | Not Active | Not Active |  | Not Active | Not Active | Not Active | Not Active |  |  |  |  |  | 0.18 | 0.088 | 1.36 | 0.572 |  |  |  | 
Clc1ccccc1C(c1ccccc1)(c1ccccc1)n1ccnc1 [CLOTRIMAZOLE] | Not Active | Not Active |  |  | Not Active | Not Active | Not Active |  |  | Not Active |  |  | 15 | 7.38 |  |  | 19.9 | 6.99 |  | 
O=C(CCCN1CCC(O)(c2ccc(Cl)cc2)CC1)c1ccc(F)cc1 [HALOPERIDOL] | Not Active | Not Active |  |  | Not Active | Not Active | Not Active |  |  |  |  |  |  |  |  |  |  |  |  | 
CN1CCN2c3ccccc3Cc3ccccc3C2C1 (stereo not given) [MIANSERIN] | Not Active | Not Active |  | Not Active | Not Active | Not Active | Not Active |  |  | Not Active |  |  | 0.083 | 0.041 |  |  |  |  |  | 
O=C1c2c(O)ccc(O)c2C(=O)c2c(NCCNCCO)ccc(NCCNCCO)c21 [MITOXANTRONE] |  |  | Not Active | Not Active | Not Active | Not Active | Not Active | Not Active | Not Active | Not Active | Not Active | Not Active |  |  |  |  |  |  |  | 
CC(C)(O)c1ccccc1CC[C@@H](SCC1(CC(=O)O)CC1)c1cccc(/C=C/c2ccc3ccc(Cl)cc3n2)c1 [MONTELUKAST] | Not Active | Not Active | Not Active | Not Active | Not Active | Not Active | Not Active |  |  | Not Active |  |  |  |  |  |  |  |  |  | 
COC(=O)C1=C(C)NC(C)=C(C(=O)OC)C1c1ccccc1[N+](=O)[O-] [NIFEDIPINE] |  |  | Not Active | Not Active | Not Active | Not Active | Not Active |  |  | Not Active | Not Active | Not Active |  |  |  |  |  |  | 23.8 | 8.15
CC(=O)[C@H]1CC[C@H]2[C@@H]3CCC4=CC(=O)CC[C@]4(C)[C@H]3CC[C@]12C [PROGESTERONE] | Not Active | Not Active | Not Active | Not Active | Not Active | Not Active | Not Active |  |  |  | Not Active | Not Active |  |  |  |  |  |  | 19.6 | 6.7
CN[C@@H]1[C@@H](O)[C@@H](O[C@@H]2[C@@H](O)[C@H](O[C@H]3OC(CN)=CC[C@H]3N)[C@@H](N)C[C@H]2N)OC[C@]1(C)O [SISOMICIN] |  |  | Not Active | Not Active | Not Active | Not Active | Not Active | Not Active | Not Active | Not Active | Not Active | Not Active |  |  |  |  |  |  |  | 
CSc1ccc2c(c1)N(CCC1CCCCN1C)c1ccccc1S2 (stereo not given) [THIORIDAZINE] | Not Active | Not Active |  |  | Not Active | Not Active | Not Active |  |  |  |  |  | 0.00589 | 0.0029 | 0.363 | 0.153 | 1.47 | 0.515 |  | 
COc1cccc(C2(O)CCCCC2CN(C)C)c1 (stereo not given) [TRAMADOL] | Not Active | Not Active | Not Active | Not Active | Not Active | Not Active | Not Active |  |  | Not Active |  |  |  |  |  |  |  |  |  | 
COC(=O)[C@@H]1[C@H]2C[C@H]3c4[nH]c5ccccc5c4CCN3C[C@@H]2CC[C@@H]1O [YOHIMBINE] |  |  |  | Not Active | Not Active | Not Active | Not Active | Not Active | Not Active | Not Active | Not Active | Not Active |  |  |  |  |  |  |  | 
